Test results published in US20230063321A1, “Methods for Treating Inflammatory Bowel Diseases with alpha4beta7 Integrin Antagonists” (Protagonist Therapeutics, Inc., priority 2020, published 2023).
“Also recorded” adds a separate entry of the source. Where two headings read alike, the source gives them in different places. Numbered stars: 1 amine (or outer) side, 2 acyl side, 3 side chain; on linkers, the order of the positions; unused ones are H or OH. Bridge positions count the residues as written; N and C are the ends. Square brackets hold non-standard residues; d marks the D form. Peptide text beside a SMILES is read from it. I, II: the chains in the order shown. ξ: configuration not given here. Phe(4-tBu) = CC(C)(C)c1ccc(C[C@H](N)C(=O)O)cc1; Diglycolyl = O=C(COCC(=O)[*:2])[*:1]; NMeR = CN[C@@H](CCCNC(=N)N)C(=O)O; β3hE = N[C@@H](CCC(=O)O)CC(=O)O; Thr(3ξ) = CC(O)[C@H](N)C(=O)O; X1 = O=C(c1ccccc1C[*:2])[*:1]; Pen = CC(C)(S)[C@H](N)C(=O)O

Columns and labels:
[1] = Stability of dosing solutions; format: physicochemical; details: 50 mM phosphate buffer pH 7.4, stored at 2-8° C.
Experimental: Dose solutions were formulated in 50 mM phosphate buffer pH 7.4 and were prepared weekly by a qualified pharmacist.

α4β7 / MAdCAM1 = target: T1, α4β7 / MAdCAM1 (Homo sapiens, UniProt P13612+P26010); test: Adhesion of CD4+ T memory cells to MAdCAM1; format: cell-based
T1 construct: endogenous in cells
Experimental: After incubation, cells were washed extensively to remove excess peptide. For each reaction, an aliquot of cells was stained for α4β7 expression, while a separate aliquot was tested for adhesion to MAdCAM1.

[2] = test system: integrin β7, integrin α4 and CCR9 on cultured CD3+ cells; test: Gut homing receptor expression on T cells cultured with ATRA; format: cell-based, B6.SJL mice; details: 100 and 1000 nM in culture
Experimental: (§1) Purified CD3+ cells were isolated from B6.SJL (CD45.1+) donor mice and cultured in the presence of anti-CD3/anti-CD28 beads and IL-2 to induce T cell activation and proliferation. In some culture conditions, Compound A and/or ATRA were added. To track the cells in vivo, ATRA− and ATRA+ cells were labeled with CMFDA and CTFR respectively. These labeled cells were then co-injected into C57BL/6 (CD45.2+) recipient mice.
Eighteen (18) B6.SJL (CD45.1+) donor mice were acclimated for 3 to 9 weeks before the start of the study and were 11 to 16 weeks old at culture setup (Day 0). On Day 0, spleen and lymph node cells were isolated from donor mice and pooled. CD3+ cells were enriched using […] Technologies kit catalog number 19851. Purity of enriched cells was confirmed by flow cytometry.
Approximately 44% of the cells were then cultured at 1.5×10^6/mL in the presence of anti-CD3/CD28 beads (Dynabeads, ThermoFisher 11453D), with a 1:1 cell to bead ratio (ATRA−, per Table 4 below). […] All-trans retinoic acid (ATRA) was then added to these cultures at a concentration of 0.1 μM.
On Day, 1 IL-2 was added to all cultures to reach a concentration of 30 U/mL.

[3] = test system: gut homing of ATRA+ T cells; test: Gut homing of cultured T cells transferred into recipient mice; format: in vivo, C57BL/6 mice
Experimental: as §1
The proportion of ATRA− and ATRA+ cells in spleen, Peyer's patches (PP), and ileal lamina propria (LP) of the recipient mice was measured by flow cytometry to evaluate cell homing.
Thirty-eight (38) C57BL/6 (CD45.2+) recipient mice were acclimated for 9 weeks before the start of the study (Day 0) and were 16 weeks old at cell transfer (Day 5). On Day 4, recipient mice were assigned to groups in a balanced manner to achieve similar average weight across the groups.
On Day 5, after removal of CD3/CD28 beads from cell cultures with a magnet, ATRA+ cells were labeled with CFTR, and ATRA− cells were labeled with CMFDA. Cells from each culture condition were then counted. For each group, ATRA− cells and cells from one of the ATRA+ culture conditions were mixed at a 1:1 ratio per Table 8 below and transferred into the recipient mice. Approximately 13 million of each type of cells (total of 26 million cells) were injected i.v. into each mouse.
Mice in Group 2 were dosed with anti-VLA-4 once, on Day 5 prior to cell transfer. Anti-VLA-4 (PS/2) antibodies were purchased from BioXCell and were kept at −80 C until needed. Antibodies were diluted to a final concentration of 1 mg/mL with sterile PBS and dosed at 10 mg/kg, intraperitoneally. No in vivo treatment was administered to other groups.
Twenty (20) to 22 hours after cell transfer all mice were euthanized, and their blood, spleen, Peyer's patches and small intestines collected. Approximately 50 μL of plasma was isolated from the blood of each mouse and sored on dry ince until further analysis.
Cells from the following tissues were isolated from each mouse for flow cytometric analysis: • Spleen • Peyer's patches • Ileal lamina propria Isolated cells were counted and stained with anti-CD45.1 antibodies and live/dead stain. Cells were then acquired for flow cytometric analysis and the proportions of CD45.1+, ATRA+ and ATRA− cells in each tissue determined.

α4β7 integrin = target: T2, α4β7 integrin (Homo sapiens, UniProt P13612+P26010); test: Inhibition of MAdCAM1-mediated CD4+ T cell proliferation (plate bound anti-CD3 + MAdCAM1); format: cell-based
T2 construct: endogenous in cells; host or cells: primary human CD4+ T cells enriched from PBMCs of healthy donors
Experimental: PBMCs were purified from healthy human donors and enrichment of CD4+ T cells was performed. […] Phenotype, distribution of T-helper (Th) subsets and % RO analyses were conducted by flow cytometry of freshly stained live samples.

[4] = Drug exposure in plasma and Peyer's patches after oral dosing
Experimental: One hour following dosing, mice were euthanized and whole blood/plasma and Peyer's patches were collected. Peyer's patches were dispersed in 1 mL RPMI medium with 2% FBS without washing step. Whole blood and single cell suspension of Peyer's patches (100 uL out of 1 mL total) were submitted for flow cytometry to determine α4β7 receptor occupancy. % RO=(1−(% positive test sample/% positive median vehicle control))*100. Plasma and Peyer's patches dispersed in single cell suspension (500 uL of 1 mL total) were also analyzed for drug exposure.

T1 sequence (P13612 34-1032): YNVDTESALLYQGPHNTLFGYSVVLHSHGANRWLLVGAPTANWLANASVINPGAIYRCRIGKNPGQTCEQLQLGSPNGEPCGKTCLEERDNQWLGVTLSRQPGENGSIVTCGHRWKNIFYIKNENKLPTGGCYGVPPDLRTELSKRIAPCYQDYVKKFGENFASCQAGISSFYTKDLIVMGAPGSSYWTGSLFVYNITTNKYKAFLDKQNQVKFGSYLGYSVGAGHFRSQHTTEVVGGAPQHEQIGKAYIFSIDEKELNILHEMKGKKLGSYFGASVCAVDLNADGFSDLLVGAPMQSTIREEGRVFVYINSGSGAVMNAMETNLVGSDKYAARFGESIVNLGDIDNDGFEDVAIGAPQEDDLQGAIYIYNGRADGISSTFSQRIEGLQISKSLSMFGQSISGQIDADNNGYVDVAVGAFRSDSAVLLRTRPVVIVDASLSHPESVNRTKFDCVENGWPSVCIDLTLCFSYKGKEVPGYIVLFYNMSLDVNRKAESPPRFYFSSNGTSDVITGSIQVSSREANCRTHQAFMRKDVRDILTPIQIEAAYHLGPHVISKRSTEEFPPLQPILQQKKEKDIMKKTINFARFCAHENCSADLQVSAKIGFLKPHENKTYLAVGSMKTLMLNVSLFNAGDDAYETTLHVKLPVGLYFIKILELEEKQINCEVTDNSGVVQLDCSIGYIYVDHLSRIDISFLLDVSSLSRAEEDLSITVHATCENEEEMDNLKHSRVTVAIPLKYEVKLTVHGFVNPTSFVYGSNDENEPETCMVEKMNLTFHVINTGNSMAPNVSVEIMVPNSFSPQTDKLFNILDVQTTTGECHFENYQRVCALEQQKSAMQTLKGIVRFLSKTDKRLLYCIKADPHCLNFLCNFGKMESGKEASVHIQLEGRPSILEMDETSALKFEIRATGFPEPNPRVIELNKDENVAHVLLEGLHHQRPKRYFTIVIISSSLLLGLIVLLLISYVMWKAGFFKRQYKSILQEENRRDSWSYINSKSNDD
T1 sequence (P26010 20-798): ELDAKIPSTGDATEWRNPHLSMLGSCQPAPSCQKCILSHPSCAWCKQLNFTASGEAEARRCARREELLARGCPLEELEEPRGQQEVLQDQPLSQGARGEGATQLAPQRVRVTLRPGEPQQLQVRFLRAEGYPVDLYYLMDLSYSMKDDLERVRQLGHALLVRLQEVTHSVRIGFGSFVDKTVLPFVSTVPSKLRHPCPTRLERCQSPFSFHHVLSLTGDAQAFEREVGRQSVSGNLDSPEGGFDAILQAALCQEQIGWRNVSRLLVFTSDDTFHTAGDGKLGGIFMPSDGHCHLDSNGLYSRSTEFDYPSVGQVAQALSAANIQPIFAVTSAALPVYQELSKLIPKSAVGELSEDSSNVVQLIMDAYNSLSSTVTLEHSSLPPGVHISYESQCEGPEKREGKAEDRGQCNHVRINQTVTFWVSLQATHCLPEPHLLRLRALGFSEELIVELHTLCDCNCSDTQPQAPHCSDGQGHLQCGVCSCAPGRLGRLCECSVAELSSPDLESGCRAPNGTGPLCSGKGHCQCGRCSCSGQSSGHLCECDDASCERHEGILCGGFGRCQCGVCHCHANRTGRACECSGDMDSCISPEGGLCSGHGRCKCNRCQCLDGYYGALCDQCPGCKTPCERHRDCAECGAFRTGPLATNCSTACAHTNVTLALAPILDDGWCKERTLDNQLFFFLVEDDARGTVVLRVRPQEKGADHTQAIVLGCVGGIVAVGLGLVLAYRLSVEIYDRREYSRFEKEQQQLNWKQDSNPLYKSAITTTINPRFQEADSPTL
T2 sequence (P13612 34-1032): as the sequence (P13612 34-1032) above
T2 sequence (P26010 20-798): as the sequence (P26010 20-798) above

## CC(C)C[C@@H]1NC(=O)[C@H](C(C)O)NC(=O)[C@H](CC(=O)O)NC(=O)[C@H](CO)NC(=O)[C@H](CCCNC(=N)N)N(C)C(=O)c2ccccc2CSC(C)(C)[C@@H](C(=O)N[C@@H](Cc2ccc(C(C)(C)C)cc2)C(=O)N[C@@H](CCC(=O)O)CC(=O)N[C@H](CCCCNC(=O)COCC(=O)NCCCC[C@@H](NC(=O)C[C@H](CCC(=O)O)NC(=O)[C@H](Cc2ccc(C(C)(C)C)cc2)NC(=O)[C@H]2NC(=O)[C@H](CC(C)C)NC(=O)[C@H](C(C)O)NC(=O)[C@H](CC(=O)O)NC(=O)[C@H](CO)NC(=O)[C@H](CCCNC(=N)N)N(C)C(=O)c3ccccc3CSC2(C)C)C(=O)O)C(=O)O)NC1=O (stereo partly drawn) [Compound A, ((2-Benzyl)-(N-Me-R)-Ser-Asp-Thr-Leu-Pen-(Phe(4-tBlu))-(β-homo-Glu)-(D-Lys)-OH)2 (SEQ ID NO: 5) and linker-DIG diglycolic acid] (I: [NMeR]SD[Thr(3ξ)]L[Pen][Phe(4-tBu)][β3hE][dK]-OH / II: [NMeR]SD[Thr(3ξ)]L[Pen][Phe(4-tBu)][β3hE][dK]-OH; linker I:9-II:9 via Diglycolyl; linker I:N-I:6, II:N-II:6 via X1)
[1]
  dosing solutions demonstrated to be stable: 3 months
α4β7 / MAdCAM1; Donor 1, normalized to no-peptide control
  Maximal adhesion reduction (%): 38%
α4β7 / MAdCAM1; Donor 2, normalized to no-peptide control
  Maximal adhesion reduction (%): 36%
α4β7 / MAdCAM1; Mean of two donors
  Maximal adhesion reduction (%): 37%
α4β7 / MAdCAM1; first donor
  R-squared, α4β7 expression reduction vs adhesion reduction: 0.968
α4β7 / MAdCAM1; second donor
  R squared, α4β7 expression reduction vs adhesion reduction: 0.940
[2]
  expression of CCR9, ATRA+/Compound A vs ATRA+/DMSO cultures: did not appear to be affected
  expression of integrin α4, ATRA+/Compound A vs ATRA+/DMSO cultures: lower
  proportion of integrin β7+ cells, ATRA+/Compound A vs ATRA+/DMSO cultures: lower proportion; also recorded: smaller proportion
[3]; cells cultured with 100 nM
  ATRA+/10^3 live cells +/− SD in Ileal LP: 4.3 +/− 1.7 /10^3 live cells
  ATRA+/10^3 live cells +/− SD in Peyer's patches: 0.3 +/− 0.2 /10^3 live cells
  ATRA+/10^3 live cells +/− SD in spleen: 2.9 +/− 0.3 /10^3 live cells
  ATRA−/10^3 live cells +/− SD in Ileal LP: 0.3 +/− 0.1 /10^3 live cells
  ATRA−/10^3 live cells +/− SD in Peyer's patches: 0.2 +/− 0.2 /10^3 live cells
  ATRA−/10^3 live cells +/− SD in spleen: 9.0 +/− 1.1 /10^3 live cells
  CD45.1+ cells/10^3 live cells +/− SD, Ileal LP: 4.6 +/− 1.8 /10^3 live cells
  CD45.1+ cells/10^3 live cells +/− SD, Peyer's patches: 0.6 +/− 0.3 /10^3 live cells
  CD45.1+ cells/10^3 live cells +/− SD, Spleen: 12.1 +/− 1.4 /10^3 live cells
  Total number of cells isolated (×10^3), Ileal LP: 2005 +/− 1276 ×10^3
  Total number of cells isolated (×10^3), Peyer's patches: 673 +/− 295 ×10^3
  Total number of cells isolated (×10^3), Spleen: 100650 +/− 10215 ×10^3
[3]; cells cultured with 1000 nM
  ATRA+/10^3 live cells +/− SD in Ileal LP: 3.5 +/− 1.8 /10^3 live cells
  ATRA+/10^3 live cells +/− SD in Peyer's patches: 0.3 +/− 0.1 /10^3 live cells
  ATRA+/10^3 live cells +/− SD in spleen: 2.4 +/− 0.5 /10^3 live cells
  ATRA−/10^3 live cells +/− SD in Ileal LP: 0.2 +/− 0.1 /10^3 live cells
  ATRA−/10^3 live cells +/− SD in Peyer's patches: 0.2 +/− 0.1 /10^3 live cells
  ATRA−/10^3 live cells +/− SD in spleen: 8.0 +/− 1.4 /10^3 live cells
  CD45.1+ cells/10^3 live cells +/− SD, Ileal LP: 3.8 +/− 1.7 /10^3 live cells
  CD45.1+ cells/10^3 live cells +/− SD, Peyer's patches: 0.6 +/− 0.1 /10^3 live cells
  CD45.1+ cells/10^3 live cells +/− SD, Spleen: 10.6 +/− 1.9 /10^3 live cells
  Total number of cells isolated (×10^3), Ileal LP: 1730 +/− 1023 ×10^3
  Total number of cells isolated (×10^3), Peyer's patches: 775 +/− 360 ×10^3
  Total number of cells isolated (×10^3), Spleen: 90617 +/− 13418 ×10^3
α4β7 integrin
  IC50: 4.4 nM
α4β7 integrin; Average, read-out: IC50
  IC50: 3.5 nM
α4β7 integrin; Compound A 1 uM, inactive analog 1 uM, vedolizumab 500 ng/mL, three days
  inhibition of MAdCAM1-mediated proliferation of CD4+ T-cells: completely abolished
α4β7 integrin; Donor 7, read-out: IC50
  IC50: 1.6 nM
α4β7 integrin; Donor 8, read-out: IC50
  IC50: 3.7 nM
α4β7 integrin; Donor 9, read-out: IC50
  IC50: 5.2 nM
α4β7 integrin; Donor 11, read-out: IC50
  IC50: 8 nM
[4]; 3 and 30 mg/kg
  concentration in plasma and Peyer's Patches vs dose: significant dose-dependent increase
[4]; both dose levels (3 and 30 mg/kg)
  concentration in Peyer's Patches compared to plasma: significantly higher
